Laboratory results from ChEMBL document CHEMBL1124182, “Design, synthesis, and properties of (4S)-7-(4-amino-2-substituted-pyrrolidin-1-yl)quinolone-3-carboxylic acids” (J Med Chem, 1988).
Values after ≈ are worked out from the molar mass of the structure shown.

Tests used:
Staphylococcus aureus [1] = experiment: In vitro Minimum inhibitory concentration against Staphylococcus aureus 45; format: functional
Staphylococcus aureus [2] = experiment: In vitro Minimum inhibitory concentration against Staphylococcus aureus ATCC 6538P; format: functional
Staphylococcus aureus [3] = experiment: In vitro Minimum inhibitory concentration against Staphylococcus aureus A5177; format: functional
Pseudomonas aeruginosa [4] = experiment: In vitro Minimum inhibitory concentration against Pseudomonas aeruginosa 5007; format: functional
Streptococcus equinus = experiment: In vitro Minimum inhibitory concentration against Streptococcus bovis A5169; format: functional
Pseudomonas aeruginosa [5] = experiment: In vitro Minimum inhibitory concentration against Pseudomonas aeruginosa K799/WT; format: functional
Staphylococcus aureus [6] = experiment: In vivo efficacy against Staphylococcus aureus 10649, in mouse protection tests when administered perorally (po); format: functional
Klebsiella pneumoniae = experiment: In vitro Minimum inhibitory concentration against Klebsiella pneumoniae 8045; format: functional
Enterococcus faecium = experiment: In vitro Minimum inhibitory concentration against Streptococcus faecium ATCC 8043; format: functional
Staphylococcus aureus [7] = experiment: In vivo efficacy against Staphylococcus aureus 10649, in mouse protection tests when administered subcutaneously (sc); format: functional
Streptococcus agalactiae = experiment: In vitro Minimum inhibitory concentration against Streptococcus agalactiae CMX 508; format: functional
Escherichia coli [8] = experiment: In vitro Minimum inhibitory concentration against Escherichia coli Juhl; format: functional
Acinetobacter = experiment: In vitro Minimum inhibitory concentration against Acinetobacter CMX 669; format: functional; details: Acinetobacter; read-out: MIC
Escherichia coli [9] = experiment: Supercoiling inhibition assay using purified DNA gyrase isolated from Escherichia coli H560; format: functional; details: read-out: I50
[10] = Partition coefficient (logP); format: physicochemical; details: octanol/water
Staphylococcus aureus [11] = experiment: In vitro Minimum inhibitory concentration against Staphylococcus aureus CMX 686B; format: functional
[12] = Compound was evaluated for the solubility in Ringer's buffer solution; format: ADME; details: Ringer's buffer solution; read-out: Solubility
Streptococcus pyogenes = experiment: In vitro Minimum inhibitory concentration against Streptococcus pyogenes 930; format: functional
Mus musculus [13] = experiment: In vivo efficacy against Escherichia coli Juhl, in mouse protection tests when administered subcutaneously (sc); format: functional
[14] = system: Staphylococcus epidermidis; experiment: In vitro Minimum inhibitory concentration against Staphylococcus epidermidis 3519; format: functional
Mus musculus [15] = experiment: In vivo efficacy against Escherichia coli Juhl, in mouse protection tests when administered perorally (po); format: functional
Mus musculus [16] = experiment: Blood level was evaluated by a disk agar diffusion assay at 6.0 hr when administered at a peroral dose of 25 mg/kg; format: functional; details: route oral
Mus musculus [17] = experiment: Blood level was evaluated by a disk agar diffusion assay at 0.5 hr when administered at a peroral dose of 25 mg/kg; format: functional; details: route oral
Mus musculus [18] = experiment: Blood level was evaluated by a disk agar diffusion assay at 24.0 hr when administered at a peroral dose of 25 mg/kg; format: functional; details: route oral
Mus musculus [19] = experiment: Blood level was evaluated by a disk agar diffusion assay at 1.0 hr when administered at a peroral dose of 25 mg/kg; format: functional; details: route oral
Mus musculus [20] = experiment: (§1) Blood level was evaluated by a disk agar diffusion assay at 3.0 hh when administered at a peroral dose of 25 mg/kg; format: functional; details: route oral
Mus musculus [21] = experiment: Blood level was evaluated by a disk agar diffusion assay at 2.0 hr when administered at a peroral dose of 25 mg/kg; format: functional; details: route oral
[22] = as §1; format: ADME, organism-based; set-up: dose 25 mg/kg, route oral; details: mouse, po, read-out: Blood level

Structure (SMILES) | MIC (Staphylococcus aureus [1]) [µg/mL] | MIC (Staphylococcus aureus [2]) [µg/mL] | MIC (Staphylococcus aureus [3]) [µg/mL] | MIC (Pseudomonas aeruginosa [4]) [µg/mL] | MIC (Streptococcus equinus) [µg/mL] | MIC (Pseudomonas aeruginosa [5]) [µg/mL] | MIC (Klebsiella pneumoniae) [µg/mL] | MIC (Enterococcus faecium) [µg/mL] | MIC (Streptococcus agalactiae) [µg/mL] | MIC (Escherichia coli [8]) [µg/mL] | MIC (Acinetobacter) [µg/mL] | IC50 (Escherichia coli [9]) [µg/mL] | logP [10] | MIC (Staphylococcus aureus [11]) [µg/mL] | solubility [12] [µg/mL] | MIC (Streptococcus pyogenes) [µg/mL] | MIC [14] [µg/mL] | ED50 (Staphylococcus aureus [6]) [mg/kg] | ED50 (Staphylococcus aureus [7]) [mg/kg] | ED50 (Mus musculus [13]) [mg/kg] | other results
O=C(O)c1cn(C2CC2)c2cc(N3CCNCC3)c(F)cc2c1=O [CIPROFLOXACIN] | 0.78 (≈ 2.35 µM) | 0.2 (≈ 0.604 µM) | 0.39 (≈ 1.18 µM) | 0.39 (≈ 1.18 µM) | 1.56 (≈ 4.71 µM) | 0.2 (≈ 0.604 µM) | 0.02 (≈ 0.0604 µM) | 0.39 (≈ 1.18 µM) | 0.78 (≈ 2.35 µM) |  | 0.39 (≈ 1.18 µM) | 0.9 (≈ 2.72 µM) |  | 0.39 (≈ 1.18 µM) |  |  | 0.78 (≈ 2.35 µM) | 15.5 | 1.6 | 0.2 | Blood level (Mus musculus [16]): 0 µg/mL; Blood level (Mus musculus [17]): 1.3 µg/mL; Blood level (Mus musculus [18]): 0 µg/mL; Blood level (Mus musculus [19]): 0.8 µg/mL; Blood level (Mus musculus [20]): 0.1 µg/mL; Blood level (Mus musculus [21]): 0.3 µg/mL; ED50 (Mus musculus [15]): 1.9 mg/kg
C[C@@H]1C[C@H](N)CN1c1cc2c(cc1F)c(=O)c(C(=O)O)cn2-c1ccc(F)cc1F | 0.78 (≈ 1.87 µM) | 0.39 (≈ 0.934 µM) | 0.78 (≈ 1.87 µM) | 5 (≈ 12 µM) | 6.2 (≈ 14.9 µM) | 6.2 (≈ 14.9 µM) | 0.78 (≈ 1.87 µM) | 3.1 (≈ 7.43 µM) | 6.2 (≈ 14.9 µM) | 0.78 (≈ 1.87 µM) | 3.1 (≈ 7.43 µM) | 18 (≈ 43.1 µM) | 0.03 | 0.39 (≈ 0.934 µM) | 182 (≈ 436 µM) | 1.56 (≈ 3.74 µM) | 0.78 (≈ 1.87 µM) |  |  |  | 
O=C(O)c1cn(-c2ccc(F)cc2)c2cc(N3CCC[C@H]3CO)c(F)cc2c1=O | 3.1 (≈ 7.74 µM) | 3.1 (≈ 7.74 µM) | 3.1 (≈ 7.74 µM) | > 100 | 100 (≈ 250 µM) | > 100 | 25 (≈ 62.4 µM) | > 100 | 100 (≈ 250 µM) | 50 (≈ 125 µM) | > 100 |  |  | 3.1 (≈ 7.74 µM) |  | 50 (≈ 125 µM) | 3.1 (≈ 7.74 µM) |  |  |  | 
O=C(O)c1cn(-c2ccc(F)cc2F)c2cc(N3C[C@@H]4C[C@H]3CN4)c(F)cc2c1=O | 0.78 (≈ 1.88 µM) | 0.1 (≈ 0.241 µM) | 0.39 (≈ 0.939 µM) | 1.56 (≈ 3.76 µM) | 1.56 (≈ 3.76 µM) | 0.39 (≈ 0.939 µM) | 0.05 (≈ 0.12 µM) | 0.39 (≈ 0.939 µM) | 0.78 (≈ 1.88 µM) | 0.05 (≈ 0.12 µM) | 0.39 (≈ 0.939 µM) |  |  | 0.2 (≈ 0.481 µM) |  | 0.78 (≈ 1.88 µM) | 0.39 (≈ 0.939 µM) |  |  |  | 

Now from value to compound, other results behind:

MIC (Staphylococcus aureus [1]) [µg/mL] | MIC (Staphylococcus aureus [2]) [µg/mL] | MIC (Staphylococcus aureus [3]) [µg/mL] | MIC (Pseudomonas aeruginosa [4]) [µg/mL] | MIC (Streptococcus equinus) [µg/mL] | MIC (Pseudomonas aeruginosa [5]) [µg/mL] | MIC (Klebsiella pneumoniae) [µg/mL] | MIC (Enterococcus faecium) [µg/mL] | MIC (Streptococcus agalactiae) [µg/mL] | MIC (Escherichia coli [8]) [µg/mL] | MIC (Acinetobacter) [µg/mL] | IC50 (Escherichia coli [9]) [µg/mL] | logP [10] | MIC (Staphylococcus aureus [11]) [µg/mL] | solubility [12] [µg/mL] | MIC (Streptococcus pyogenes) [µg/mL] | MIC [14] [µg/mL] | Structure (SMILES) | ED50 (Staphylococcus aureus [6]) [mg/kg] | ED50 (Staphylococcus aureus [7]) [mg/kg] | ED50 (Mus musculus [13]) [mg/kg] | other results
1.56 (≈ 3.6 µM) | 0.1 (≈ 0.231 µM) | 0.78 (≈ 1.8 µM) | 0.78 (≈ 1.8 µM) | 1.56 (≈ 3.6 µM) | 0.39 (≈ 0.9 µM) | 0.78 (≈ 1.8 µM) | 0.78 (≈ 1.8 µM) | 0.78 (≈ 1.8 µM) | 0.78 (≈ 1.8 µM) | 6.2 (≈ 14.3 µM) | 0.4 (≈ 0.923 µM) | -0.98 | 0.39 (≈ 0.9 µM) | 60 (≈ 138 µM) | 0.39 (≈ 0.9 µM) | 0.78 (≈ 1.8 µM) | N[C@H]1CC(CO)N(c2cc3c(cc2F)c(=O)c(C(=O)O)cn3-c2ccc(F)cc2F)C1 (stereo partly specified) | 5.4 | 0.7 | 5.9 | ED50 (Mus musculus [15]): > 16 mg/kg
0.1 (≈ 0.24 µM) | 0.02 (≈ 0.0479 µM) | 0.2 (≈ 0.479 µM) | 3.1 (≈ 7.43 µM) | 0.2 (≈ 0.479 µM) | 0.39 (≈ 0.934 µM) | 0.02 (≈ 0.0479 µM) | 0.1 (≈ 0.24 µM) | 0.1 (≈ 0.24 µM) | 0.05 (≈ 0.12 µM) | 0.1 (≈ 0.24 µM) | 0.9 (≈ 2.16 µM) | 0.085 | 0.05 (≈ 0.12 µM) | 53 (≈ 127 µM) | 0.2 (≈ 0.479 µM) | 0.2 (≈ 0.479 µM) | C[C@H]1C[C@H](N)CN1c1cc2c(cc1F)c(=O)c(C(=O)O)cn2-c1ccc(F)cc1F | 3.3 | < 0.5 | 0.9 | concentration at 3 h [22]: 1100 ng/mL; ED50 (Mus musculus [15]): 3.6 mg/kg
12.5 (≈ 28.8 µM) | 1.56 (≈ 3.6 µM) | 6.2 (≈ 14.3 µM) | 12.5 (≈ 28.8 µM) | 50 (≈ 115 µM) | 12.5 (≈ 28.8 µM) | 3.1 (≈ 7.15 µM) | 25 (≈ 57.7 µM) | 12.5 (≈ 28.8 µM) | 3.1 (≈ 7.15 µM) | 25 (≈ 57.7 µM) | 10 (≈ 23.1 µM) |  | 6.2 (≈ 14.3 µM) | 60 (≈ 138 µM) | 25 (≈ 57.7 µM) | 12.5 (≈ 28.8 µM) | N[C@H]1C[C@@H](CO)N(c2cc3c(cc2F)c(=O)c(C(=O)O)cn3-c2ccc(F)cc2F)C1 |  |  |  | 
0.39 (≈ 0.87 µM) | 0.1 (≈ 0.223 µM) | 0.2 (≈ 0.446 µM) | 1.56 (≈ 3.48 µM) | 1.56 (≈ 3.48 µM) | 1.56 (≈ 3.48 µM) | 0.1 (≈ 0.223 µM) | 0.78 (≈ 1.74 µM) | 0.78 (≈ 1.74 µM) | 0.2 (≈ 0.446 µM) | 0.78 (≈ 1.74 µM) |  |  | 0.1 (≈ 0.223 µM) |  | 0.78 (≈ 1.74 µM) | 0.39 (≈ 0.87 µM) | COCC1C[C@H](N)CN1c1nc2c(cc1F)c(=O)c(C(=O)O)cn2-c1ccc(F)cc1F (stereo partly specified) |  |  |  | 
